We go through 26 compounds from BindingDB's records for doi:10.1074/jbc.M402433200 (University of Bristol, 2004).

For experiment [1], the target named is L-lactate dehydrogenase B chain (Homo sapiens, UniProt P07195). Kind of experiment: Lactate Dehydrogenase Inhibition Assay. From the text:
(§1) An LDH enzymatic assay developed for high throughput format was used. The dehydrogenase reaction was run in the lactate to pyruvate direction and coupled with the ability of diaphorase to reduce p-iodonitrotetrazolium violet using the NADH generated in the conversion of lactate to pyruvate. The progression of the coupling reaction was monitored as the increase of absorbance at 492 nm. Positive hits were subjected to additional analysis to determine IC50 values.

The target in experiment [2] is L-lactate dehydrogenase (Plasmodium falciparum (isolate CDC / Honduras), UniProt Q27743). Kind of experiment: Lactate Dehydrogenase Inhibition Assay. Particulars: pH 7.5; 25 °C.
Chain of L-lactate dehydrogenase (Q27743 whole entry): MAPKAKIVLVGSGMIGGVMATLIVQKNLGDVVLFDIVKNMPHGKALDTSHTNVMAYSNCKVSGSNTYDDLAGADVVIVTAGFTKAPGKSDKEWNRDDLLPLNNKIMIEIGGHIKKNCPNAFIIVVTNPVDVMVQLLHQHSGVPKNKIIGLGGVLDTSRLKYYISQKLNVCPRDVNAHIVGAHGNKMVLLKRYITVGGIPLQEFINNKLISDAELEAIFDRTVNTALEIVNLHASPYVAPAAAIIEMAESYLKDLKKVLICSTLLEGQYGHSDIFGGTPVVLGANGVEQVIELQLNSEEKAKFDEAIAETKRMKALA
Source text: as §1

Chain of L-lactate dehydrogenase B chain (P07195 whole entry): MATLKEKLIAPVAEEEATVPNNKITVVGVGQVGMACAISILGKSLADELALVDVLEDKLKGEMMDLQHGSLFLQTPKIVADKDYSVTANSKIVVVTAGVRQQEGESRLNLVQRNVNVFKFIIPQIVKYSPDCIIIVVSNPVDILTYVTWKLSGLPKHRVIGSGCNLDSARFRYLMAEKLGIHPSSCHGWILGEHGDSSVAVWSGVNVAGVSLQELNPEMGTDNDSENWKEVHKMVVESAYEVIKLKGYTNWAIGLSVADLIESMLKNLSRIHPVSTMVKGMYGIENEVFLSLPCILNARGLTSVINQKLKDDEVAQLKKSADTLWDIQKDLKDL

Take `O=C(O)Cc1no[nH]c1=O` [2-(4-hydroxy-1,2,5-oxadiazol-3-yl)acetic acid]: the IC50 in experiment [1] and in experiment [2] was over 200 µM each time.
As to `COc1nocc1C(=O)O` [3-methoxy-1,2-oxazole-4-carboxylic acid], the IC50 in experiment [1] and in experiment [2] was over 100 µM throughout.
For the compound `Cn1nnc(O)c1C(=O)O` [4-hydroxy-1-methyl-1H-1,2,3-triazole-5-carboxylic acid], the IC50 in experiment [1] and in experiment [2] was over 100 µM in each case.
Take `O=C(O)c1nocc1O` [4-hydroxy-1,2-oxazole-3-carboxylic acid]: the concentration for half-maximal inhibition (IC50) is over 100 µM in experiment [1] and 16 µM in experiment [2].
With `Cn1occ(C(=O)O)c1=O` [2-methyl-3-oxo-2,3-dihydro-1,2-oxazole-4-carboxylic acid], the IC50 in experiment [1] and in experiment [2] was over 100 µM in each case.
In the case of `Nc1nsnc1C(=O)O` [4-amino-1,2,5-thiadiazole-3-carboxylic acid], the IC50 in experiment [1] and in experiment [2] was over 100 µM in each case.
Consider `O=C(O)c1c(O)nnn1Cc1ccccc1` [1-benzyl-4-hydroxy-1H-1,2,3-triazole-5-carboxylic acid], for which the 50% inhibitory concentration (IC50) in experiment [1] and in experiment [2] was over 100 µM in each case.
As to `O=C(O)c1nsnc1O` [4-hydroxy-1,2,5-thiadiazole-3-carboxylic acid], the IC50 in experiment [1] was determined as 10.3 µM. Moreover, in experiment [2], the IC50 came out at 0.14 µM and the Ki is 0.29 µM.
As to `O=C(O)c1nonc1NCCO` [4-[(2-hydroxyethyl)amino]-1,2,5-oxadiazole-3-carboxylic acid], the IC50 in experiment [1] and in experiment [2] was over 200 µM in each case.
Regarding `COC(=O)c1c(C)[nH]oc1=O` [methyl 5-hydroxy-3-methyl-1,2-oxazole-4-carboxylate], the IC50 in experiment [1] and in experiment [2] was over 100 µM each time.
`O=C(O)c1cnn[nH]1` [1H-1,2,3-triazole-5-carboxylic acid]: the values for the IC50 in experiment [1] and in experiment [2] were over 200 µM and 98 µM, respectively.
In the same order, the values of `O=C(O)c1nn(Cc2ccccc2)[nH]c1=O` [2-benzyl-5-hydroxy-2H-1,2,3-triazole-4-carboxylic acid] are over 100 µM and over 100 µM.
Turning to `Cc1o[nH]c(=O)c1C(=O)O` [3-hydroxy-5-methyl-1,2-oxazole-4-carboxylic acid], the IC50 in experiment [1] and in experiment [2] was over 100 µM in each case.
Regarding `O=C(OCc1ccc(Cl)c(Cl)c1)c1no[nH]c1=O` [(3,4-dichlorophenyl)methyl 4-hydroxy-1,2,5-oxadiazole-3-carboxylate], the IC50 in experiment [1] and in experiment [2] was over 200 µM throughout.
`O=C(O)c1conc1O` [3-hydroxy-1,2-oxazole-4-carboxylic acid] gave an IC50 in experiment [1] of 54 µM. For the same compound, in experiment [2], the IC50 was found to be 1.1 µM and the Ki amounted to 0.47 µM.
With `O=C(O)c1cnon1` [1,2,5-oxadiazole-3-carboxylic acid], the IC50 in experiment [1] and in experiment [2] was over 200 µM in each case.
As for `CCOC(=O)c1c[nH]oc1=O` [ethyl 5-hydroxy-1,2-oxazole-4-carboxylate], the IC50 in experiment [1] and in experiment [2] was over 100 µM each time.
As for `CCOC(=O)c1nonc1O` [ethyl 4-hydroxy-1,2,5-oxadiazole-3-carboxylate], the IC50 in experiment [1] and in experiment [2] was over 100 µM each time.
`CCOC(=O)c1co[nH]c1=O` [ethyl 3-hydroxy-1,2-oxazole-4-carboxylate]: the IC50 in experiment [1] and in experiment [2] was over 100 µM each time.
In the case of `O=C(O)c1noc(C(=O)O)c1O` [4-hydroxy-1,2-oxazole-3,5-dicarboxylic acid], the figures for the IC50 in experiment [1] and in experiment [2] were over 100 µM and 81 µM, respectively.
For `Cn1nc(O)c(C(=O)O)n1` [5-hydroxy-2-methyl-2H-1,2,3-triazole-4-carboxylic acid], the IC50 in experiment [1] and in experiment [2] was over 100 µM each time.
As for `COc1nsnc1C(=O)O` [4-methoxy-1,2,5-thiadiazole-3-carboxylic acid], the IC50 in experiment [1] and in experiment [2] was over 100 µM each time.
On to `CCOC(=O)c1nonc1OCc1ccc(OC)cc1` [ethyl 4-[(4-methoxyphenyl)methoxy]-1,2,5-oxadiazole-3-carboxylate], for which the IC50 in experiment [1] and in experiment [2] was over 200 µM throughout.
As for `O=C(O)c1nonc1OC/C=C/c1ccccc1` [4-{[(2E)-3-phenylprop-2-en-1-yl]oxy}-1,2,5-oxadiazole-3-carboxylic acid], the IC50 in experiment [1] and in experiment [2] was over 200 µM in each case.
Turning to `Nc1nonc1C(=O)O` [4-amino-1,2,5-oxadiazole-3-carboxylic acid], the IC50 in experiment [1] and in experiment [2] was over 200 µM each time.
Regarding `O=C(O)c1nonc1O` [4-hydroxy-1,2,5-oxadiazole-3-carboxylic acid], it took 72.1 µM to reach half-maximal inhibition in experiment [1] (IC50). In addition, in experiment [2], the IC50 stood at 0.65 µM and affinity was put at a Ki of 0.21 µM.

Usually IC50 stands for the concentration that inhibits the measured activity by half. High values mean a need for much substance, low ones inhibition by little substance. A word on the Ki: it is the dissociation constant of the complex between target and ligand, obtained from inhibition or displacement. The low end stands for a stronger hold on the target, the high end for a looser hold on the target.
